Measured values from publication PMC8445441, “Elucidating the mechanism by which synthetic helper peptides sensitize Pseudomonas aeruginosa to multiple antibiotics” (PLoS Pathogens, 2021).
Where “and” joins values, the source holds several entries; their conditions need not be identical. Equal entries are not always repeated. Blank lines part the entries; values can stand above or below the molecule they belong to.

Tests used:
P. aeruginosa PAK = assay: microbe, parasite or virus in culture; parameters: MICa: MIC of the antibiotic / MICac: MIC of the antibiotic in the combination: unit not given beside the values
Protocol: (§1) The MIC tests were performed in triplicate using broth microdilution in accordance with Clinical and Laboratory Standards Institute (CLSI) recommendations (http://iacld.ir/DL/public/CLSI-2018-M100-S28.pdf). Briefly, drugs were two-fold diluted in MHB and mixed with an equal volume of bacterial suspensions containing approximately 1 × 10^6 CFU/mL in 96-well microliter plate. After 18 h incubation at 37 °C, the MIC values were defined as the lowest concentrations of antibiotics with no visible growth of bacteria. […] Otherwise, 1/4 MIC of the peptide was used in the combination. […] If needed, membrane compounds PG, PE, PC, CL or LPS, or membrane stabilizers MgCl2 or CaCl2, or efflux pumps inhibitor PAβN were added to the broth medium to clarify the effect of other substances on the synergy between peptide and antibiotics. All the tests were performed in triplicate.
(§2) The fractional inhibitory concentration (FIC) indices were calculated using the previously described formula FICI = FICa + FICb = MICac/MICa + MICbc/MICb. The FICI was interpreted according to EUCAST [65] as follows: synergistic, FICI≤0.5; additive, 0.5<FICI≤1; indifferent, 1<FICI<2; antagonistic, FICI ≥2. For the FICI calculations, twice the highest concentration tested was used in the cases where the MIC was not reached.

P. aeruginosa NR-31040 = assay: microbe, parasite or virus in culture; parameters: MICa: MIC of the antibiotic / MICac: MIC of the antibiotic in the combination: unit not given beside the values; settings: strain NR-31040, unit not given
Protocol: as §1, §2

P. aeruginosa PA14 = assay: microbe, parasite or virus in culture; parameters: MICa: MIC of the antibiotic / MICac: MIC of the antibiotic in the combination: unit not given beside the values
Protocol: as §1, §2

P. aeruginosa ATCC27853 = assay: microbe, parasite or virus in culture; parameters: MICa: MIC of the antibiotic / MICac: MIC of the antibiotic in the combination: unit not given beside the values
Protocol: as §1, §2

P. aeruginosa NR-31041 = assay: microbe, parasite or virus in culture; parameters: MICa: MIC of the antibiotic / MICac: MIC of the antibiotic in the combination: unit not given beside the values
Protocol: as §1, §2

P. aeruginosa HM-214 = settings: strain HM-214; antibiotic + D-11 (MICb/MICbc 128/4)
Protocol: as §1, §2

P. aeruginosa AUMC-Pa-2 = settings: strain AUMC-Pa-2; antibiotic + D-11 (MICb/MICbc 64/4)
Protocol: as §1, §2

P. aeruginosa AUMC-Pa-1 = settings: strain AUMC-Pa-1; antibiotic + D-11 (MICb/MICbc 128/4)
Protocol: as §1, §2

P. aeruginosa AUMC-Pa-5 = assay: microbe, parasite or virus in culture; settings: strain AUMC-Pa-5
Protocol: as §1, §2

P. aeruginosa AUMC-Pa-6 = assay: microbe, parasite or virus in culture
Protocol: as §1, §2

P. aeruginosa AUMC-Pa-3 = assay: microbe, parasite or virus in culture
Protocol: as §1, §2

P. aeruginosa PAO1 = assay: microbe, parasite or virus in culture; settings: PAO1
Protocol: as §1, §2

P. aeruginosa AUMC-Pa-4 = assay: microbe, parasite or virus in culture
Protocol: as §1, §2

[1] = tested on: clinical P. aeruginosa isolates; assay: microbe, parasite or virus in culture; settings: antibiotic alone
Protocol: The bacterial strains, primers and plasmids used in this study are listed in S5 Table. […] Bacteria were cultured in LB medium or cation-adjusted Muller-Hinton broth (CA-MHB) at 37 °C with agitation at 220 rpm. All the antibiotics and chemical compounds used in this study were purchased from Sigma-Aldrich.
as §1

[2] = S3 Table, antibiotic + 4 μM D-11

MIC (P. aeruginosa PAK; Pseudomonas aeruginosa, 18 h, read-out: MICa: MIC of the antibiotic): 2 µM
MICac: MIC of the antibiotic in the combination (P. aeruginosa PAK; strain PAK, with D-11 at MICbc 4, unit not given): 0.5
MICa: MIC of the antibiotic (P. aeruginosa NR-31040; antibiotic alone): 2
MICac: MIC of the antibiotic in the combination (P. aeruginosa NR-31040; with D-11 at MICbc 4): 1
MIC (P. aeruginosa PA14; Pseudomonas aeruginosa, PA14, 18 h, read-out: MICa: MIC of the antibiotic): 1 µM
MICac: MIC of the antibiotic in the combination (P. aeruginosa PA14; strain PA14, with D-11 at MICbc 4, unit not given): 0.5
MIC (P. aeruginosa ATCC27853; Pseudomonas aeruginosa, ATCC27853, 18 h, read-out: MICa: MIC of the antibiotic): 2 µM
MICac: MIC of the antibiotic in the combination (P. aeruginosa ATCC27853; strain ATCC27853, with D-11 at MICbc 4, unit not given): 0.25
MIC (P. aeruginosa NR-31041; Pseudomonas aeruginosa, NR31041, 18 h, read-out: MICa: MIC of the antibiotic): 2 µM
MICac: MIC of the antibiotic in the combination (P. aeruginosa NR-31041; strain NR-31041, with D-11 at MICbc 4, unit not given): 0.5
MICa: MIC of the antibiotic (P. aeruginosa AUMC-Pa-5; antibiotic alone, unit not given): 1
MICac: MIC of the antibiotic in the combination (P. aeruginosa AUMC-Pa-5; with D-11 at MICbc 4, unit not given): 2
MIC (P. aeruginosa AUMC-Pa-6; Pseudomonas aeruginosa, AUMCPA6, 18 h, read-out: MICa: MIC of the antibiotic): 0.5 µM
MICac: MIC of the antibiotic in the combination (P. aeruginosa AUMC-Pa-6; strain AUMC-Pa-6, with D-11 at MICbc 4, unit not given): 0.5/0.5
MIC (P. aeruginosa AUMC-Pa-3; Pseudomonas aeruginosa, AUMCPA3, 18 h, read-out: MICa: MIC of the antibiotic): 1 µM
MICac: MIC of the antibiotic in the combination (P. aeruginosa AUMC-Pa-3; strain AUMC-Pa-3, with D-11 at MICbc 4, unit not given): 0.25
MIC (P. aeruginosa PAO1; Pseudomonas aeruginosa, PAO1, 18 h, read-out: MICa: the MIC of antibiotics, S3 Table, antibiotic alone): 1 µM
MICac: the MIC for the antibiotic in the combination (P. aeruginosa PAO1; S3 Table, with 2 μM D-11): 0.125 µM
MICac: the MIC for the antibiotic in the combination (P. aeruginosa PAO1; S3 Table, with 4 μM D-11): 0.03125 µM
MIC (P. aeruginosa AUMC-Pa-4; Pseudomonas aeruginosa, AUMCPA4, 18 h, read-out: MICa: MIC of the antibiotic): 1 µM
MICac: MIC of the antibiotic in the combination (P. aeruginosa AUMC-Pa-4; strain AUMC-Pa-4, with D-11 at MICbc 4, unit not given): 0.25
Molecule: CC1COc2c(N3CCN(C)CC3)c(F)cc3c(=O)c(C(=O)O)cn1c23 (stereo not drawn) [Ofloxacin]
FICI (P. aeruginosa PAK; strain PAK, antibiotic + D-11 (MICb/MICbc 64/4)): 0.313
FICI (P. aeruginosa ATCC27853; strain ATCC27853, antibiotic + D-11 (MICb/MICbc 32/4)): 0.250
FICI (P. aeruginosa NR-31041; strain NR-31041, antibiotic + D-11 (MICb/MICbc 64/4)): 0.313
FICI (P. aeruginosa HM-214): 1.031
FICI (P. aeruginosa AUMC-Pa-2): 0.563
FICI (P. aeruginosa AUMC-Pa-1): 0.094
FICI (P. aeruginosa AUMC-Pa-5; antibiotic + D-11 (MICb/MICbc 64/4)): 2.063
FICI (P. aeruginosa AUMC-Pa-6; strain AUMC-Pa-6, antibiotic + D-11 (MICb/MICbc 64/4)): 1.063
FICI (P. aeruginosa AUMC-Pa-3; strain AUMC-Pa-3, antibiotic + D-11 (MICb/MICbc 128/4)): 0.281
FICI (P. aeruginosa PAO1; S3 Table, antibiotic + 2 μM D-11): 0.188
FICI (P. aeruginosa PAO1; [2]): 0.156

MICac: the MIC for the antibiotic in the combination (P. aeruginosa PAO1; S3 Table, with 2 μM D-11): 2/2 μM
MICac: the MIC for the antibiotic in the combination (P. aeruginosa PAO1; S3 Table, with 4 μM D-11): 4 µM
MICa: the MIC of antibiotics (P. aeruginosa PAO1; S3 Table, antibiotic alone): 2/2 μM and 2 μM
Antibiotic sensibility (MIC) of clinical P. aeruginosa isolate AUMC-Pa-1 ([1]; strain AUMC-Pa-1): 1 µM
Antibiotic sensibility (MIC) of clinical P. aeruginosa isolate AUMC-Pa-2 ([1]; strain AUMC-Pa-2): 0.5 µM
Antibiotic sensibility (MIC) of clinical P. aeruginosa isolate AUMC-Pa-3 ([1]; strain AUMC-Pa-3): 0.0625 µM
Antibiotic sensibility (MIC) of clinical P. aeruginosa isolate AUMC-Pa-4 ([1]; strain AUMC-Pa-4): 0.5 µM
Antibiotic sensibility (MIC) of clinical P. aeruginosa isolate AUMC-Pa-5 ([1]; strain AUMC-Pa-5): 0.5 µM
Antibiotic sensibility (MIC) of clinical P. aeruginosa isolate AUMC-Pa-6 ([1]; strain AUMC-Pa-6): 2 µM
Antibiotic sensibility (MIC) of clinical P. aeruginosa isolate HM-214 ([1]; strain HM-214): 2 µM
Antibiotic sensibility (MIC) of clinical P. aeruginosa isolate NR-31040 ([1]; strain NR-31040): 8 µM
Antibiotic sensibility (MIC) of clinical P. aeruginosa isolate NR-31041 ([1]; strain NR-31041): 4 µM
Molecule: Neomycin
FICI (P. aeruginosa PAO1; [2]): 2.125
